For the experiment, the target named is T1, Recombinant human mPGES-1 (Homo sapiens, UniProt O14684).
T1 construct: made in house; host or cells: CHO cells (crude microsomal fractions)
T1 sequence (O14684 1-152): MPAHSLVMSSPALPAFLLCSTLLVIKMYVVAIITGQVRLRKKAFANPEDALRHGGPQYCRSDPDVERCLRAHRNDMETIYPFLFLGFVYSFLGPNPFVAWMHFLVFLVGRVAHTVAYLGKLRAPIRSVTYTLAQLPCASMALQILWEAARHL
Put plainly: In-vitro screening of mPGES-1 inhibitors (inhibition of PGE2 formation from PGH2, HTRF detection). The settings on record: mPGES-1 enzyme; for inhibition at 1 µM: 1 μM test compound, read-out: Percentage inhibition at 1 μM; for inhibition at 1 µM / inhibition at 10 µM: crude microsomal fractions; for inhibition at 10 µM: 10 μM test compound, read-out: Percentage inhibition at 10 μM; for pIC50: class symbols. Type of experiment: biochemical. An outline of the steps:
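PGH2-to-PGE2 isomerization run for 1 min with 15 μM PGH2 after 10 min compound preincubation with microsomal enzyme (40–60 μg/mL) and 2.5 mM GSH, pH buffer 0.1 M potassium phosphate with EDTA. Stannous chloride quench, HTRF PGE2 readout, IC50 fitted against uninhibited reaction.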
On the technique in general: In TR-FRET formats the signal depends on donor and acceptor labels being close together.

In general, inhibition refers to how much of the control response was suppressed. By pIC50 is commonly meant the IC50 on a negative log10 scale, so that one unit is a factor of ten.

pIC50: −log10 of the molar value. Where only a bound is given, the exact number is not on record here.

As for `CC(C)C(=O)NCc1ccc(Cl)c(-n2nc(-c3ccc(C#CC(C)(C)C)c(F)c3)[nH]c2=O)c1` [Example-149, N-(4-Chloro-3-(3-(3-fluoro-4-(3,3-dimethylbut-1-ynyl)phenyl)-4,5-dihydro-5-oxo-1,2,4-triazol-1-yl)benzyl)isobutyramide], the inhibition at 1 µM came out at 98.3%, the inhibition at 10 µM came out at 94.6% and the pIC50 was > 7.30.

On to `CC(C)C(=O)NCc1ccc(Cl)c(-n2nc(-c3ccc(C#CC4CC4)c(F)c3)[nH]c2=O)c1` [Example-150, N-(4-Chloro-3-(3-(4-(2-cyclopropylethynyl)-3-fluorophenyl)-4,5-dihydro-5-oxo-1,2,4-triazol-1-yl)benzyl)isobutyramide], for which the inhibition at 1 µM was determined as 98.4%, the inhibition at 10 µM was found to be 99.5% and the pIC50 is > 7.30.

In the case of `CC(C)(C)C(=O)NCc1ccc(Cl)c(-n2nc(-c3ccc(CN4CCCC4)cc3)[nH]c2=O)c1` [Example-151, N-(4-Chloro-3-(4,5-dihydro-5-oxo-3-(4-((pyrrolidin-1-yl)methyl)phenyl)-1,2,4-triazol-1-yl)benzyl)pivalamide], the inhibition at 1 µM was found to be 65% and the inhibition at 10 µM was found to be 95.9%.

Turning to `CC(C)(C)C(=O)NCc1ccc(Cl)c(-n2nc(-c3ccc(COCC(F)(F)F)cc3)[nH]c2=O)c1` [Example-152, N-(3-(3-(4-((2,2,2-Trifluoroethoxy)methyl)phenyl)-4,5-dihydro-5-oxo-1,2,4-triazol-1-yl)-4-chlorobenzyl)pivalamide], the inhibition at 1 µM was found to be 96%, the inhibition at 10 µM amounted to 100% and the negative logarithm of the IC50 (pIC50) was > 7.30.

Regarding `CC(C)c1nnc(-c2ccc(-c3nn(-c4cc(CNC(=O)C(C)(C)C)ccc4Cl)c(=O)[nH]3)cc2)o1` [Example-153, N-(4-Chloro-3-(4,5-dihydro-3-(4-(5-isopropyl-1,3,4-oxadiazol-2-yl)phenyl)-5-oxo-1,2,4-triazol-1-yl)benzyl)pivalamide], the inhibition at 1 µM was determined as 93.9%, the inhibition at 10 µM is 99.7% and the negative logarithm of the IC50 (pIC50) was 7.00 to 7.30.

Turning to `Cc1cc(-n2nc(-c3cc(CNC(=O)C(C)(C)C)ccc3Cl)[nH]c2=O)ccc1Cl` [Example-154, N-(4-Chloro-3-(1-(4-chloro-3-methylphenyl)-4,5-dihydro-5-oxo-1H-1,2,4-triazol-3-yl)benzyl)pivalamide], the inhibition at 1 µM came out at 95.2%, the inhibition at 10 µM is 100% and the pIC50 is > 7.30.

`Cc1cc(-n2nc(-c3cc(CNC(=O)C(C)C)ccc3Cl)[nH]c2=O)ccc1Cl` [Example-155, N-(4-Chloro-3-(1-(4-chloro-3-methylphenyl)-4,5-dihydro-5-oxo-1H-1,2,4-triazol-3-yl)benzyl)isobutyramide]: the inhibition at 1 µM is 99.7%, the inhibition at 10 µM was determined as 97.1% and the pIC50 was > 7.30.

Turning to `CC(C)(C)C(=O)NCc1ccc(Cl)c(-c2nn(-c3cc(F)cc(C(F)(F)F)c3)c(=O)[nH]2)c1` [Example-156, N-(4-Chloro-3-(1-(3-fluoro-5-(trifluoromethyl)phenyl)-4,5-dihydro-5-oxo-1H-1,2,4-triazol-3-yl)benzyl)pivalamide], the inhibition at 1 µM is 98.5%, the inhibition at 10 µM stood at 99.2% and the pIC50 is > 7.30.

Regarding `CC(C)(C)C(=O)NCc1ccc(Cl)c(-c2nn(-c3ccc(Cl)c(C(F)(F)F)c3)c(=O)[nH]2)c1` [Example-157, N-(4-Chloro-3-(1-(4-chloro-3-(trifluoromethyl)phenyl)-4,5-dihydro-5-oxo-1H-1,2,4-triazol-3-yl)benzyl)pivalamide], the inhibition at 1 µM was determined as 98.5%, the inhibition at 10 µM is 96.5% and the pIC50 is > 7.30.

Regarding `Cc1ccc(-n2nc(-c3cc(CNC(=O)C(C)(C)C)ccc3Cl)[nH]c2=O)cc1C(F)(F)F` [Example-158, N-(4-Chloro-3-(1-(3-(trifluoromethyl)-4-methylphenyl)-4,5-dihydro-5-oxo-1H-1,2,4-triazol-3-yl)benzyl)pivalamide], the inhibition at 1 µM amounted to 99%, the inhibition at 10 µM came out at 99.7% and the pIC50 is > 7.30.

Values taken from US10821100B2, “Triazolone compounds as mPGES-1 inhibitors” (Glenmark Pharmaceuticals S.A., priority 2012, dated 2020).
